This test deals with T1, human 11β-HSD1 (Homo sapiens, UniProt P28845).
T1 construct: host or cells: microsome fraction
The test can be described thus: Enzymatic 11beta-HSD1 test (SPA-based detection). The test is classed as biochemical. The settings on record: human 11β-HSD1 microsome fraction, [1,2-3H]-cortisone, NADPH, 37° C. 1 hour. An outline of the steps:
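Human 11β-HSD1 microsomes (0.2 µg protein) converted [1,2-3H]-cortisone ([…]) for 1 h at 37 °C. The reaction buffer was HEPES/KCl/NaCl/MgCl2 with 0.25 mM NADPH, with compounds added in DMSO. The reaction was stopped with SPA beads, anti-cortisol monoclonal antibody and 0.01 mM SSR110887; after 1 h at room temperature, [3H]-cortisol was scintillation-counted.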

T1 sequence (P28845 whole entry): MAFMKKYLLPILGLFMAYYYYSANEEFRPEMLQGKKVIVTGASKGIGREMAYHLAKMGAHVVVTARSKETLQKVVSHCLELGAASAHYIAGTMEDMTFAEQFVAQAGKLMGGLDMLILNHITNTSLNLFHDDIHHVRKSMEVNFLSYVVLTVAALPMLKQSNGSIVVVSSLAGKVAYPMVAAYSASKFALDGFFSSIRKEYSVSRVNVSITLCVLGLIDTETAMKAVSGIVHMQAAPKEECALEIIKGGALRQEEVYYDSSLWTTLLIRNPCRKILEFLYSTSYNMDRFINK

The IC50 is the point on the concentration scale where inhibition reaches its midpoint. Low readings indicate greater potency in that assay, high ones weaker potency in that assay. The molecule `CC1(C)OC(N[C@@H](CCO)c2ccccc2)=NS(=O)(=O)C1(C)c1cccc(N2CCN(S(C)(=O)=O)CC2)c1` (stereo partly drawn) [Compound 34, (S)-3-{5-[3-(4-Methanesulfonylpiperazin-1-yl)-phenyl]-5,6,6-trimethyl-4,4-dioxo-5,6-dihydro-4H-4lambda6-[1,4,3]oxathiazin-2-ylamino}-3-phenylpropan-1-ol] displayed an IC50 of 17 nM.

For the molecule `CC1(C)OC(N[C@@H](CCO)c2ccccc2F)=NS(=O)(=O)C1c1ccc(-c2ccc(C#N)cc2)cc1` (stereo partly shown) [Example 95], it took 6 nM to reach half-maximal inhibition (IC50). Against the preceding molecule, the IC50 is about 2.8-fold lower.

For the molecule `CC1(C)OC(N[C@@H](CCO)c2ccccc2F)=NS(=O)(=O)[C@@H]1c1ccc(-c2ccnc(C(N)=O)c2)cc1` [Example 189, 4-(4-{(R)-2-[(S)-1-(2-fluorophenyl)-3-hydroxy-propylamino]-6,6-dimethyl-4,4-dioxo-5,6-dihydro-4H-4lambda6-[1,4,3]oxathiazin-5-yl}-phenyl)-pyridine-2-carboxamide], the IC50 was found to be 5 nM.

`CC1(C)OC(N[C@@H](CCO)c2ccccc2F)=NS(=O)(=O)C1c1ccc(C2CCN(CC(F)F)CC2)cc1` (stereo partly shown) [Example 105]: inhibition was half-maximal at 8 nM (IC50). This IC50 lies about 1.6-fold higher than the previous one.

For the molecule `CC1(C)OC(N[C@@H](CCO)c2ccccc2F)=NS(=O)(=O)[C@H]1c1ccc(-c2ccnc(C#N)c2)cc1` [Example 184, 4-(4-{(S)-2-[(S)-1-(2-fluorophenyl)-3-hydroxy-propylamino]-6,6-dimethyl-4,4-dioxo-5,6-dihydro-4H-4lambda6-[1,4,3]oxathiazin-5-yl}-phenyl)-pyridine-2-carbonitrile], the midpoint of inhibition, the IC50, lay at 3 nM.

Molecule `C[C@H](NC1=NS(=O)(=O)C(c2ccc(-c3cnc(N4CCNCC4)nc3)cc2)C(C)(C)O1)c1ccccc1F` (stereo partly drawn) [Example 166, {6,6-Dimethyl-4,4-dioxo-5-[4-(2-piperazin-1-yl-pyrimidin-5-yl)-phenyl]-5,6-dihydro-4H-4lambda6-[1,4,3]oxathiazin-2-yl}-[(S)-1-(2-fluorophenyl)-ethyl]-amine] gave an IC50 of 4 nM.

The molecule `CC1(C)OC(N[C@@H](CCO)c2ccccc2F)=NS(=O)(=O)[C@@H]1c1ccc(-c2cccc(C(N)=O)c2)cc1` [Example 150, 4′-{(R)-2-[(S)-1-(2-fluorophenyl)-3-hydroxy-propylamino]-6,6-dimethyl-4,4-dioxo-5,6-dihydro-4H-4lambda6-[1,4,3]oxathiazin-5-yl}-biphenyl-3-carboxamide] gave a concentration for half-maximal inhibition (IC50) of 3 nM.

`C[C@H](NC1=NS(=O)(=O)C(c2ccc(-c3cccc(C(N)=O)c3)nc2)C(C)(C)O1)c1ccccc1F` (stereo partly drawn) [Example 180, 3-(5-{2-[(S)-1-(2-fluorophenyl)-ethylamino]-6,6-dimethyl-4,4-dioxo-5,6-dihydro-4H-41ambda6-[1,4,3]oxathiazin-5-yl}-pyridin-2-yl)-benzamide]: the IC50 was determined as 10 nM.

For the molecule `CC1(C)OC(N[C@@H](CCO)c2ccccc2F)=NS(=O)(=O)C1(C)c1ccc(-c2ccccc2)cc1` (stereo partly drawn) [Example 53, (S)-3-(5-Biphenyl-4-yl-5,6,6-trimethyl-4,4-dioxo-5,6-dihydro-4H-4lambda6-[1,4,3]oxathiazin-2-ylamino)-3-(2-fluorophenyl)-propan-1-ol], the IC50 was 8 nM. The IC50 values of the last two molecules are within 1.5-fold of each other.

Consider `C[C@H](NC1=NS(=O)(=O)[C@@H](c2ccc(-c3cncc(C(N)=O)c3)cc2)C(C)(C)O1)c1ccccc1F` [Example 177, 5-(4-{(S)-2-[(S)-1-(2-fluorophenyl)-ethylamino]-6,6-dimethyl-4,4-dioxo-5,6-dihydro-4H-4lambda6-[1,4,3]oxathiazin-5-yl}-phenyl)-nicotinamide], for which the IC50 was found to be 17 nM.

Regarding `CC1(C)OC(N[C@@H](CCO)c2ccccc2F)=NS(=O)(=O)C1c1ccc(N2C(=O)c3ccccc3C2=O)cc1` (stereo partly drawn) [Example 141, 2-(4-{2-[(S)-1-(2-fluorophenyl)-3-hydroxy-propylamino]-6,6-dimethyl-4,4-dioxo-5,6-dihydro-4H-4lambda6-[1,4,3]oxathiazin-5-yl}-phenyl)-isoindole-1,3-dione], the IC50 was determined as 14 nM.

Regarding `CC1(C)OC(N[C@@H](CCO)c2ccccc2F)=NS(=O)(=O)C1(C)c1cccc(-c2ccccc2)c1` (single isomer, unassigned) [Example 75], half-maximal inhibition (IC50) required 44 nM.

Molecule `CC1(C)OC(N[C@@H](CCO)c2ccccc2F)=NS(=O)(=O)C1(C)c1cccc(N2CCCC2)c1` (stereo partly drawn) [Compound 49, (S)-3-(2-Fluorophenyl)-3-[5,6,6-trimethyl-4,4-dioxo-5-(3-pyrrolidin-1-ylphenyl)-5,6-dihydro-4H-4lambda6-[1,4,3]oxathiazin-2-ylamino]propan-1-ol] gave an IC50 of 24 nM.

Molecule `C[C@H](NC1=NS(=O)(=O)C(c2ccc(C3CCN(C4CC4)CC3)cc2)C(C)(C)O1)c1ccccc1F` (stereo partly drawn) [Example 172, {5-[4-(1-Cyclopropyl-piperidin-4-yl)-phenyl]-6,6-dimethyl-4,4-dioxo-5,6-dihydro-4H-4lambda6-[1,4,3]oxathiazin-2-yl}-[(S)-1-(2-fluorophenyl)-ethyl]-amine] displayed an IC50 of 55 nM.

`CC1(C)OC(N[C@@H](CCO)c2ccccc2F)=NS(=O)(=O)C1c1ccc(-c2ccccn2)cc1` (stereo partly drawn) [Example 134, (S)-3-[6,6-Dimethyl-4,4-dioxo-5-(4-pyridin-2-yl-phenyl)-5,6-dihydro-4H-4lambda6-[1,4,3]oxathiazin-2-ylamino]-3-(2-fluorophenyl)-propan-1-ol]: half-maximal inhibition (IC50) was put at 11 nM.

Molecule `CC1(C)OC(NC(CCO)c2cccc(F)c2F)=NS(=O)(=O)C1c1ccc(-c2ccccc2)cc1` (stereo not shown) [Example 82, 3-(5-Biphenyl-4-yl-6,6-dimethyl-4,4-dioxo-5,6-dihydro-4H-4lambda6-[1,4,3]oxathiazin-2-ylamino)-3-(2,3-difluorophenyl)-propan-1-ol] had an IC50 of 23 nM. Against the preceding molecule, the IC50 is about 2.1-fold higher.

In the case of `CC1(C)OC(N[C@@H](CCO)c2ccccc2F)=NS(=O)(=O)C1c1ccc(-c2cn[nH]c2)cc1` (stereo partly drawn) [Example 121, (S)-3-{6,6-Dimethyl-4,4-dioxo-5-[4-(1H-pyrazol-4-yl)-phenyl]-5,6-dihydro-4H-4lambda6-[1,4,3]oxathiazin-2-ylamino}-3-(2-fluorophenyl)-propan-1-ol], inhibition was half-maximal at 8 nM (IC50).

Regarding `C[C@H](NC1=NS(=O)(=O)C(C)(c2ccc(-c3ccccc3)cc2)C(C)(C)O1)c1ccccc1F` (stereo partly drawn) [Example 55, (5-Biphenyl-4-yl-5,6,6-trimethyl-4,4-dioxo-5,6-dihydro-4H-4lambda6-[1,4,3]oxathiazin-2-yl)-[(S)-1-(2-fluorophenyl)-ethyl]-amine], 28 nM corresponded to half-maximal inhibition (IC50).

Molecule `CC1(C)OC(N[C@@H](CCO)c2ccccc2F)=NS(=O)(=O)C1(C)c1cccc(-c2cncnc2)c1` (stereo partly drawn) [Example 46, (S)-3-(2-Fluorophenyl)-3-[5,6,6-trimethyl-4,4-dioxo-5-(3-pyrimidin-5-yl-phenyl)-5,6-dihydro-4H-4lambda6-[1,4,3]oxathiazin-2-ylamino]-propan-1-ol] showed an IC50 of 18 nM.

In turn, `CC1(C)OC(N[C@@H](CCO)c2ccccc2F)=NS(=O)(=O)[C@@H]1c1ccc(-c2ccc(C(N)=O)cc2)cc1` [Example 147, 4′-{(R)-2-[(S)-1-(2-fluorophenyl)-3-hydroxy-propylamino]-6,6-dimethyl-4,4-dioxo-5,6-dihydro-4H-4lambda6-[1,4,3]oxathiazin-5-yl}-biphenyl-4-carboxamide] gave an IC50 of 9 nM. This IC50 is about 2-fold lower than that of the molecule before.

Regarding `C[C@H](NC1=NS(=O)(=O)C(C)(c2cccc(N3CCCC3)c2)C(C)(C)O1)c1ccccc1F` (stereo partly drawn) [Compound 36, [(S)-1-(2-Fluorophenyl)ethyl]-[5,6,6-trimethyl-4,4-dioxo-5-(3-pyrrolidin-1-ylphenyl)-5,6-dihydro-4H-4lambda6-[1,4,3]oxathiazin-2-yl]amine], the IC50 was found to be 15 nM.

In turn, `C[C@H](NC1=NS(=O)(=O)C(c2ccc(C(C)(C)C)cc2)C(C)(C)O1)c1ccccc1F` (stereo partly drawn) [Compound 59, [5-(4-tert-Butylphenyl)-6,6-dimethyl-4,4-dioxo-5,6-dihydro-4H-4lambda6-[1,4,3]oxathiazin-2-yl]-[(S)-1-(2-fluorophenyl)ethyl]amine] registered a concentration for half-maximal inhibition (IC50) of 55 nM.

In turn, `CC1(C)OC(NC2CCCCC2)=NS(=O)(=O)C1c1cccc(OCc2ccccc2)c1` (stereo not shown) [Example 19, [5-(3-Benzyloxy-phenyl)-6,6-dimethyl-4,4-dioxo-5,6-dihydro-4H-4lambda6-[1,4,3]oxathiazin-2-yl]-cyclohexyl-amine] yielded an IC50 of 352 nM. This IC50 is about 6.4-fold higher than that of the molecule before.

In turn, `CC1(C)OC(N[C@@H](CCO)c2ccccc2F)=NS(=O)(=O)C1(C)c1cccc(Br)c1` (stereo partly drawn) [Example 47, (S)-3-[5-(3-Bromophenyl)-5,6,6-trimethyl-4,4-dioxo-5,6-dihydro-4H-4lambda6-[1,4,3]oxathiazin-2-ylamino]-3-(2-fluorophenyl)-propan-1-ol] registered an IC50 of 5 nM. This IC50 is about 70-fold lower than that of the molecule before.

In turn, `CC1(C)OC(N[C@@H](CCO)c2ccccc2F)=NS(=O)(=O)C1c1ccc(-c2cccc(C#N)c2)cc1` (stereo partly shown) [Example 93] showed a half-inhibitory concentration (IC50) of 6 nM. This IC50 and that of the molecule before are within 1.5-fold of each other.

`CC1(C)OC(N[C@@H](CCO)c2ccccc2F)=NS(=O)(=O)C1c1ccc(C(F)(F)F)cc1` (stereo partly drawn) [Example 102, (S)-3-[6,6-Dimethyl-4,4-dioxo-5-(4-trifluormethyl-phenyl)-5,6-dihydro-4H-4lambda6-[1,4,3]oxathiazin-2-ylamino]-3-(2-fluorophenyl)-propan-1-ol] displayed an IC50 of 6 nM.

`CC1(C)OC(N[C@@H](CCO)c2ccccc2)=NS(=O)(=O)C1c1ccc(O)cc1` (stereo partly drawn) [Example 5, 4-[2-((S)-3-Hydroxy-1-phenyl-propylamino)-6,6-dimethyl-4,4-dioxo-5,6-dihydro-4H-4lambda6-[1,4,3]oxathiazin-5-yl]-phenol] registered an IC50 of 1670 nM.

Regarding `CC1(C)OC(N[C@@H](CCO)c2cccc(F)c2Cl)=NS(=O)(=O)C1c1ccc(-c2ccccc2)cc1` (stereo partly drawn) [Example 96, (S)-3-(5-Biphenyl-4-yl-6,6-dimethyl-4,4-dioxo-5,6-dihydro-4H-4lambda6-[1,4,3]oxathiazin-2-ylamino)-3-(2-chloro-3-fluorophenyl)-propan-1-ol], the IC50 was determined as 10 nM. This IC50 lies about 170-fold lower than the previous one.

These data come from patent US8895547B2, “Substituted phenyl-oxathiazine derivatives, method for producing them, drugs containing said compounds and the use thereof” (Sanofi, priority 2011, dated 2014).
